Test results reported in ChEMBL document CHEMBL1201862, “PubChem BioAssay data set” (2004).
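The compound was tested at five concentrations on cells cultured in 96-well plates, with a 48-hour exposure period. GI50 is the concentration that inhibits growth by half.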 The source made the active and inactive calls. Cut-off read from the data, not from the text of the source: active = GI50 up to about 1.1 µM and inactive = higher.

How the values were obtained:
Assay in all cases: NCI anticancer screen, dose series, 48 h
[1] = system: K562
[2] = system: HT-29
[3] = system: PC-3
[4] = system: SNB-75
[5] = system: NCI-H226
[6] = system: SF-295
[7] = system: RXF 393
[8] = system: NCI-H522
[9] = system: EKVX
[10] = system: OVCAR-3
[11] = system: UACC-257
[12] = system: Hs-578T
[13] = system: MDA-MB-231
[14] = system: HL-60
[15] = system: Malme-3M
[16] = system: U-251
[17] = system: MCF7
[18] = system: BT-549
[19] = system: A549
[20] = system: RPMI-8226

Compound	GI50 [1]	GI50 [2]	GI50 [3]	GI50 [4]	GI50 [5]	GI50 [6]	GI50 [7]	GI50 [8]	GI50 [9]	GI50 [10]	GI50 [11]	GI50 [12]	GI50 [13]	GI50 [14]	GI50 [15]	GI50 [16]	GI50 [17]	GI50 [18]	GI50 [19]	GI50 [20]
Cc1cc(O)c2c(c1)C(=O)C(c1c(C)cc3c(c1O)C(=O)C1OC1C3=O)=CC2=O (centres undefined)	0.339 µM (active)	3.36 µM (inactive)	12.5 µM (inactive)	12.4 µM (inactive)	16.1 µM (inactive)	16.5 µM (inactive)	1.35 µM (inactive)	0.469 µM (active)	3.15 µM (inactive)	1.83 µM (inactive)	4.74 µM (inactive)	4.16 µM (inactive)	2.03 µM (inactive)	0.0175 µM (active)	1.73 µM (inactive)	6.9 µM (inactive)	1.84 µM (inactive)	2.4 µM (inactive)	17.7 µM (inactive)	0.357 µM (active)
CCCCCCc1cc2cc(-c3cn4ccsc4n3)c(=O)oc2cc1O	> 75.2 µM (inactive)	> 100 µM (inactive)	> 100 µM (inactive)	8.15 µM (inactive)	> 100 µM (inactive)	> 100 µM (inactive)	29.3 µM (inactive)	29.2 µM (inactive)	> 77.6 µM (inactive)	> 77.1 µM (inactive)	> 24.5 µM (inactive)	20.4 µM (inactive)	> 75 µM (inactive)	> 100 µM (inactive)		45.6 µM (inactive)	99.5 µM (inactive)	> 100 µM (inactive)	> 100 µM (inactive)	98.9 µM (inactive)
Cc1c2ncccc2cc2oc3ccccc3c(=O)c12	24.9 µM (inactive)	35.6 µM (inactive)	75.7 µM (inactive)	> 100 µM (inactive)	38.4 µM (inactive)	31.6 µM (inactive)	61.4 µM (inactive)	31.5 µM (inactive)	11.1 µM (inactive)	33.9 µM (inactive)	58.5 µM (inactive)	> 100 µM (inactive)	92 µM (inactive)	34 µM (inactive)	68.4 µM (inactive)		5.11 µM (inactive)	55.8 µM (inactive)	12.9 µM (inactive)	> 100 µM (inactive)
C=C1c2ccccc2C(=O)c2c1c1c(C(=O)OC)c(O)ccc1n2Cc1ccccc1	0.323 µM (active)	0.163 µM (active)	0.437 µM (active)	0.264 µM (active)		0.574 µM (active)	0.267 µM (active)	0.237 µM (active)	0.9 µM (active)	0.151 µM (active)	1.71 µM (inactive)	0.297 µM (active)	0.355 µM (active)	0.265 µM (active)	0.445 µM (active)	0.333 µM (active)	0.249 µM (active)	0.585 µM (active)	1.11 µM (active)	0.175 µM (active)
CC(=N/N=C/c1ccccn1)/C(C)=N/N=C(C)/C(C)=N/N=C(C)/C(C)=N/N=C(C)/C(C)=N\N=C\c1ccccn1	> 100 µM (inactive)	> 100 µM (inactive)	> 100 µM (inactive)	> 100 µM (inactive)	> 100 µM (inactive)	> 100 µM (inactive)	> 100 µM (inactive)	> 100 µM (inactive)	> 100 µM (inactive)	> 100 µM (inactive)	> 100 µM (inactive)	> 100 µM (inactive)	> 100 µM (inactive)	49.1 µM (inactive)	> 100 µM (inactive)	> 100 µM (inactive)	> 100 µM (inactive)	> 100 µM (inactive)	> 100 µM (inactive)	> 100 µM (inactive)
CC1OC(OC2C(O[C@@H]3C[C@@H]4CC[C@@H]5[C@H](CC[C@]6(C)C7C(C[C@@H]56)O[C@]5(CC[C@@H](C)CO5)[C@H]7C)[C@@]4(C)C[C@H]3O)OC(CO)C(O)C2O)C(O)C(O)C1O (some centres undefined)	1.89 µM (inactive)	1.62 µM (inactive)	1.76 µM (inactive)	2.24 µM (inactive)	2.84 µM (inactive)	1.83 µM (inactive)	2.15 µM (inactive)	1.89 µM (inactive)	1.92 µM (inactive)	1.8 µM (inactive)	1.86 µM (inactive)	2.54 µM (inactive)	1.78 µM (inactive)	2.06 µM (inactive)	1.82 µM (inactive)	1.68 µM (inactive)	1.85 µM (inactive)	1.93 µM (inactive)	1.86 µM (inactive)	2.28 µM (inactive)
COc1cccc(-c2cc(=O)c3ccccc3o2)c1N	> 75.3 µM (inactive)	12.8 µM (inactive)	> 23.6 µM (inactive)	51.6 µM (inactive)	63 µM (inactive)	> 66.1 µM (inactive)	45 µM (inactive)	27.9 µM (inactive)	16.2 µM (inactive)	> 100 µM (inactive)	36.6 µM (inactive)	71.9 µM (inactive)	26.9 µM (inactive)	6.76 µM (inactive)	3.62 µM (inactive)	> 100 µM (inactive)	> 100 µM (inactive)	> 100 µM (inactive)	> 91.8 µM (inactive)	> 76.6 µM (inactive)
CCOC(=O)/C(=C\c1ccc(C#N)cc1)C(C)=O	30.7 µM (inactive)	33.4 µM (inactive)	18.5 µM (inactive)	14.6 µM (inactive)	35.1 µM (inactive)	34.5 µM (inactive)	15.3 µM (inactive)	11.5 µM (inactive)	49.7 µM (inactive)	36.6 µM (inactive)	18.6 µM (inactive)	24.3 µM (inactive)	15.6 µM (inactive)	34 µM (inactive)	15.2 µM (inactive)	16.2 µM (inactive)	19.9 µM (inactive)	13.5 µM (inactive)	60.8 µM (inactive)	22 µM (inactive)
C=CCn1c(N)c(C#N)c(C#N)c1-c1ccccc1	> 100 µM (inactive)	> 100 µM (inactive)	> 100 µM (inactive)	26.2 µM (inactive)	> 100 µM (inactive)	> 100 µM (inactive)	> 100 µM (inactive)	> 100 µM (inactive)	57.7 µM (inactive)	> 100 µM (inactive)	> 100 µM (inactive)	> 100 µM (inactive)	> 100 µM (inactive)	> 100 µM (inactive)	> 100 µM (inactive)	> 100 µM (inactive)	> 100 µM (inactive)	> 100 µM (inactive)	> 100 µM (inactive)	> 100 µM (inactive)
C1CSCCCSCCCSCCCSCCCSCCCSCCCSCCCSC1	> 100 µM (inactive)	> 100 µM (inactive)	> 100 µM (inactive)		82.2 µM (inactive)	> 100 µM (inactive)	> 100 µM (inactive)	> 100 µM (inactive)	> 100 µM (inactive)	> 100 µM (inactive)	> 100 µM (inactive)	> 100 µM (inactive)	> 100 µM (inactive)	> 100 µM (inactive)	> 100 µM (inactive)	> 100 µM (inactive)	> 100 µM (inactive)	> 100 µM (inactive)	> 100 µM (inactive)	> 100 µM (inactive)
CN(c1ccc(Cl)cc1)S(=O)(=O)c1cccc([N+](=O)[O-])c1	26.9 µM (inactive)	22.5 µM (inactive)	14.3 µM (inactive)	56.5 µM (inactive)	53.8 µM (inactive)	> 100 µM (inactive)	45.4 µM (inactive)	65.5 µM (inactive)	66.5 µM (inactive)	55.3 µM (inactive)	> 100 µM (inactive)	> 100 µM (inactive)	44 µM (inactive)	> 10 µM (inactive)	69.2 µM (inactive)	64.4 µM (inactive)	56.1 µM (inactive)	32.7 µM (inactive)	> 100 µM (inactive)	39.1 µM (inactive)
CC1=C(C(N)=O)C(c2ccncc2)C(C#N)=C2SCC(=O)N12 (centres undefined)	> 100 µM (inactive)	> 100 µM (inactive)	> 100 µM (inactive)	> 100 µM (inactive)	> 100 µM (inactive)	> 100 µM (inactive)	> 100 µM (inactive)	> 100 µM (inactive)	> 100 µM (inactive)	> 100 µM (inactive)	> 100 µM (inactive)	> 100 µM (inactive)	> 100 µM (inactive)	> 100 µM (inactive)	> 100 µM (inactive)	> 100 µM (inactive)	> 100 µM (inactive)	> 100 µM (inactive)	> 100 µM (inactive)	> 100 µM (inactive)
COC(=O)c1c(O)ccc2c1c1c(n2Cc2cccc(C)c2)C(=O)c2ccccc2C1=O	8.91 µM (inactive)	4.07 µM (inactive)	11 µM (inactive)		17.4 µM (inactive)	13 µM (inactive)	10.7 µM (inactive)	11.5 µM (inactive)	19.5 µM (inactive)	8.2 µM (inactive)	16.6 µM (inactive)	12.4 µM (inactive)	16.1 µM (inactive)	16.6 µM (inactive)	16.7 µM (inactive)	11.6 µM (inactive)	5.37 µM (inactive)	15 µM (inactive)	6.97 µM (inactive)	3.72 µM (inactive)
CC(=O)C(O)N1C(=O)C=CC1=O (centres undefined)	> 25 µM (inactive)	16.4 µM (inactive)	6.11 µM (inactive)	6.24 µM (inactive)	12.9 µM (inactive)	18.3 µM (inactive)	2.13 µM (inactive)	1 µM (active)	6.5 µM (inactive)	17.6 µM (inactive)	6 µM (inactive)	7.38 µM (inactive)	5.05 µM (inactive)	1.74 µM (inactive)	2.19 µM (inactive)	17.4 µM (inactive)	> 25 µM (inactive)	8 µM (inactive)		2.26 µM (inactive)
